From patent publication US4382889A, “Epoxysuccinic acid derivatives” (Taisho Pharmaceutical Co., Ltd., priority 1979, dated 1983)

Each compound was assayed against T1, papain (Carica papaya, UniProt P00784) (assay: Papain inhibitory activity (method of K. Hanada et al)). Conditions: papain 80 ug/ml, Sigma, 2 x cry.
T1 construct: purchased Sigma Chem. Co
T1 sequence (P00784 134-345): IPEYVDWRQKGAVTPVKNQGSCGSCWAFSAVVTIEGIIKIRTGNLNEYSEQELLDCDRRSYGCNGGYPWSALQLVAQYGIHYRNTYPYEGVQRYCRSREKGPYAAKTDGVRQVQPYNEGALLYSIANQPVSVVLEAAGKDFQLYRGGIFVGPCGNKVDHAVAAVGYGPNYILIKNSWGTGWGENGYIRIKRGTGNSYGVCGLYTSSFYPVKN
Type: biochemical
Description: Papain inhibitory activity of the compounds of the present invention was assayed by the method of K. Hanada et al, [Argric. Biol. Chem., 42, No. 3, 523(1978)] using papain (80 ug/ml, Sigma Chem. Co., 2 x cry.).

Compound | Papain ID50 (amount of inhibitor for 50% inhibition)
CC[C@H](C)[C@H](NC(=O)[C@H](CC(C)C)NC(=O)C1OC1C(=O)OCc1ccccc1)C(=O)OC (mixture of isomers) [Compound 21, N-(DL-3 trans-benzyloxycarbonyloxirane-2-carbonyl)-L-leucyl-L-isoleucine methyl ester] | 0.169 µg
CCC(C)[C@H](NC(=O)C1OC1C(=O)OCc1ccccc1)C(=O)N[C@@H](Cc1c[nH]c2ccccc12)C(=O)OC (stereo partly drawn) [Compound 38] | 0.305 µg
COC(=O)[C@@H](CC(C)C)NC(=O)[C@H](CC(C)C)NC(=O)[C@H]1O[C@@H]1C(=O)OCc1ccccc1 [Compound 25, N-(L-3-trans-benzyloxycarbonyloxirane-2-carbonyl)-L-leucyl-D-leucine methyl ester] | 0.223 µg
CC(C)C[C@H](NC(=O)C1OC1C(=O)OCc1ccccc1)C(=O)N(C)C (mixture of isomers) [Compound 11, N-[N'-(DL-3-trans-benzyloxycarbonyloxirane-2-carbonyl)-L-leucyl]dimethylamine] | 0.184 µg
CC(C)C[C@H](NC(=O)C1OC1C(=O)OC1CCCCC1)C(=O)NC1CCCCC1 (mixture of isomers) [Compound 13, N-[N'-(DL-3-trans-cyclohexyloxycarbonyloxirane-2-carbonyl)-L-leucyl]cyclohexylamine] | 0.255 µg
CC(C)C[C@H](NC(=O)C1OC1C(=O)O)C(=O)N[C@@H](CCCN)C(=O)O (mixture of isomers) [Compound 44, N-(DL-3-trans-carboxyoxirane-2-carbonyl)-L-leucyl-L-ornithine] | 0.250 µg
CCOC(=O)C1OC1C(=O)N[C@@H](CC(C)C)C(=O)NC1CCCC1 (stereo partly drawn) [Compound 6] | 0.410 µg
CCOC(=O)C1OC1C(=O)N[C@@H](CC(C)C)C(=O)NCCC(C)C (stereo partly drawn) [Compound 7] | 0.410 µg
CCOC(=O)C1OC1C(=O)N[C@@H](CC(C)C)C(=O)N1CCCC1 (mixture of isomers) [Compound 3, N-[N'-(DL-3-trans-ethoxycarbonyloxirane-2-carbonyl)-L-leucyl]pyrrolidine] | 1.10 µg
CC(C)C[C@H](NC(=O)[C@H](CC(C)C)NC(=O)C1OC1C(=O)OCc1ccccc1)C(N)=O (stereo partly drawn) [Compound 34] | 0.298 µg
CCOC(=O)CNC(=O)[C@@H](NC(=O)C1OC1C(=O)OCc1ccccc1)C(C)CC (stereo partly drawn) [Compound 40] | 0.481 µg
CCOC(=O)[C@H](Cc1ccccc1)NC(=O)[C@H](CC(C)C)NC(=O)C1OC1C(=O)OCc1ccccc1 (stereo partly drawn) [Compound 31] | 0.375 µg
CC(C)C[C@H](NC(=O)C1OC1C(=O)OCc1ccccc1)C(=O)N(C)c1ccccc1 (mixture of isomers) [Compound 10, N-[N'-(DL-3-trans-benzyloxycarbonyloxirane-2-carbonyl)-L-leucyl]-N-methylaniline] | 0.510 µg
COC(=O)[C@@H](CC(C)C)NC(=O)[C@H](CC(C)C)NC(=O)C1OC1C(=O)OCc1ccccc1 (mixture of isomers) [Compound 23, N-(DL-3-trans-benzyloxycarbonyloxirane-2-carbonyl)-L-leucyl-D-leucine methyl ester] | 0.221 µg
COC(=O)[C@@H](CC(C)C)NC(=O)[C@H](CC(C)C)NC(=O)[C@@H]1O[C@H]1C(=O)OCc1ccccc1 [Compound 24, N-(D-3-trans-benzyloxycarbonyloxirane-2-carbonyl)-L-leucyl-D-leucine methyl ester] | 0.219 µg
CC(C)C[C@H](NC(=O)C1OC1C(=O)OCc1ccccc1)C(=O)N[C@@H](CC(C)C)C(=O)OCc1ccccc1 (mixture of isomers) [Compound 17, N-(DL-3-trans-benzyloxycarbonyloxirane-2-carbonyl)-L-leucyl-L-leucine benzyl ester] | 0.255 µg
CCOC(=O)C1OC1C(=O)N[C@@H](CC(C)C)C(=O)N[C@@H](CC(C)C)C(=O)N(C)C (stereo partly drawn) [Compound 35] | 0.212 µg
COC(=O)[C@H](Cc1ccccc1)NC(=O)[C@H](Cc1ccccc1)NC(=O)C1OC1C(=O)OCc1ccccc1 (stereo partly drawn) [Compound 37] | 2.50 µg
CCOC(=O)C1OC1C(=O)N[C@@H](Cc1ccccc1)C(=O)N[C@@H](Cc1ccccc1)C(=O)OC (mixture of isomers) [Compound 18, N-(DL-3-trans-ethoxycarbonyloxirane-2-carbonyl-L-phenylalanyl-L-phenylalaninemethyl ester] | 29.07 µg
COC(=O)[C@@H](CC(C)C)NC(=O)[C@@H](CC(C)C)NC(=O)C1OC1C(=O)OCc1ccccc1 (stereo partly drawn) [Compound 33] | 0.255 µg

Compound | Papain ID50 (amount of inhibitor for 50% inhibition)
COC(=O)CC[C@H](NC(=O)[C@H](CC(C)C)NC(=O)C1OC1C(=O)O)C(=O)OC (mixture of isomers) [Compound 47, N-(DL-3-transcarboxyoxirane-2-carbonyl)-L-leucyl-L-glutamic acid dimethyl ester] | 0.260 µg
CCOC(=O)C1OC1C(=O)N[C@@H](CC(C)C)C(=O)NC1CC1 (stereo partly drawn) [Compound 5] | 0.284 µg
CCOC(=O)C1OC1C(=O)N[C@@H](CC(C)C)C(=O)NCCc1ccccc1 (stereo partly drawn) [Compound 8] | 0.446 µg
COC(=O)[C@H](CCSC)NC(=O)[C@H](CC(C)C)NC(=O)C1OC1C(=O)OCc1ccccc1 (stereo partly drawn) [Compound 27] | 0.216 µg
CCCNC(=O)[C@H](CC(C)C)NC(=O)C1OC1C(=O)OCC (stereo partly drawn) [Compound 9] | 0.313 µg
CCCCCCCCCCNC(=O)[C@H](CC(C)C)NC(=O)C1OC1C(=O)OCC (mixture of isomers) [Compound 2, N-[N'-(DL-3-trans-ethoxycarbonyloxirane-2-carbonyl)-L-leucyl]-n-decylamine] | 0.227 µg
CCC(C)[C@H](NC(=O)C1OC1C(=O)OCc1ccccc1)C(=O)N[C@@H](Cc1ccc(O)cc1)C(=O)OC (stereo partly drawn) [Compound 39] | 0.408 µg
CCC(C)[C@H](NC(=O)C1OC1C(=O)OCc1ccccc1)C(=O)N[C@H](C(=O)OC)C(C)C (stereo partly drawn) [Compound 41] | 0.272 µg
CCOC(=O)C1OC1C(=O)N[C@@H](CC(C)C)C(=O)NC1CCCCC1 (mixture of isomers) [Compound 1, N-[N'-(DL-3-trans-ethoxycarbonyloxirane-2-carbonyl)-L-leucyl]cyclohexylamine] | 0.439 µg
CC(C)C[C@H](NC(=O)C1OC1C(=O)OC1CCCC1)C(=O)NC1CCCC1 (mixture of isomers) [Compound 14, N-[N'-(DL-3-trans-cycloentyloxycarbonyl)-L-leucyl]cyclopentylamine] | 0.187 µg
COC(=O)[C@H](CCCN=C(N)N[N+](=O)[O-])NC(=O)[C@H](CC(C)C)NC(=O)C1OC1C(=O)OCc1ccccc1 (mixture of isomers) [Compound 26, N-(DL-3-trans-benzyloxycarbonyloxirane-2-carbonyl)-L-leucyl-N^G -nitro-L-arginine methyl ester] | 0.139 µg
COC(=O)C1OC1C(=O)N[C@@H](CC(C)C)C(=O)N[C@@H](CCSC)C(=O)OC (stereo partly drawn) [Compound 28] | 0.156 µg
COC(=O)[C@H](CC(C)C)NC(=O)[C@@H](CC(C)C)NC(=O)C1OC1C(=O)OCc1ccccc1 (mixture of isomers) [Compound 22, N-(DL-3-trans-benzyloxycarbonyloxirane-2-carbonyl)-D-leucyl-L-leucine methyl ester] | 8.28 µg
COC(=O)[C@H](CC(C)C)NC(=O)[C@H](CC(C)C)NC(=O)C1OC1C(=O)OCc1ccccc1 (stereo partly drawn) [Compound 32] | 0.227 µg
CCOC(=O)C1OC1C(=O)N[C@@H](CC(C)C)C(=O)N1CCCCC1 (mixture of isomers) [Compound 4, N-[N'-(DL-3-trans-ethoxycarbonyloxirane-2-carbonyl)-L-leucyl]piperidine] | 0.417 µg
CC(C)C[C@H](NC(=O)C1OC1C(=O)O)C(=O)N[C@@H](CC(C)C)C(=O)OCc1ccccc1 (mixture of isomers) [Compound 48, N-(DL-3-trans-carboxyoxirane-2-carbonyl)-L-leucyl-L-leucine benzyl ester] | 0.215 µg
COC(=O)[C@@H]1CCCN1C(=O)[C@H](CC(C)C)NC(=O)C1OC1C(=O)O (mixture of isomers) [Compound 46, N-(DL-3-trans-carboxyoxirane-2-carbonyl)-L-leucyl-L-proline methyl ester] | 0.105 µg
COC(=O)CC[C@H](NC(=O)[C@H](CC(C)C)NC(=O)C1OC1C(=O)OCc1ccccc1)C(=O)OC (mixture of isomers) [Compound 20, N-(DL-3-trans-benzyloxycarbonyloxirane-2-carbonyl)-L-leucyl-L-gluamic acid dimethyl ester] | 0.255 µg
COC(=O)[C@@H](NC(=O)[C@H](CC(C)C)NC(=O)C1OC1C(=O)OCc1ccccc1)[C@@H](C)O (stereo partly drawn) [Compound 29] | 0.35 µg
